Measured values as given in ChEMBL document CHEMBL3232812, “In-vitro anti-proliferative and anti-oxidant activity of galangin, fisetin and quercetin: role of localization and intermolecular interaction in model membrane” (Eur J Med Chem, 2014).
In brackets after ≈: the same amount, converted by molar mass. Activity calls are given as the source filed them. The calls are words filed in the database; no cut-off is given here.

Assays:
[1] = Binding affinity to 0.5 mg/ml of DPPC multilamellar vesicles at 100 uM after 2 hrs by centrifugation method; format: physicochemical
[2] = tested on: Radical scavenging activity; experiment: Antioxidant activity assessed as DPPH radical scavenging activity after 30 mins; format: functional
MCF7 = experiment: Antiproliferative activity against human MCF7 cells assessed as cell growth at 10^-4 ug/ml after 48 hrs by SRB assay relative to control; format: functional; conditions: MCF7, 48 h, read-out: Activity
HepG2 = experiment: Antiproliferative activity against human HepG2 cells assessed as cell growth at 10^-4 ug/ml after 48 hrs by SRB assay relative to control; format: functional; conditions: HepG2, 48 h, read-out: Activity
[3] = Binding affinity DPPC multilamellar vesicles assessed as main transition temperature at 1:10 compound/lipid ratio after 2 hrs by differential scanning calorimetry method (reference value: 41.98 degC)
[4] = Binding affinity DPPC multilamellar vesicles assessed as main transition temperature at 1:5 compound/lipid ratio after 2 hrs by differential scanning calorimetry method (reference value: 41.98 degC)
[5] = Binding affinity DPPC multilamellar vesicles after 2 hrs by centrifugation method; format: physicochemical
[6] = Binding affinity DPPC multilamellar vesicles assessed as chemical shift at 1:5 compound/lipid ratio at 303 K by nuclear magnetic resonance analysis
[7] = Binding affinity DPPC multilamellar vesicles assessed as main transition temperature at 1:2 compound/lipid ratio after 2 hrs by differential scanning calorimetry method (reference value: 41.98 degC)
K562 = experiment: Antiproliferative activity against human K562 cells assessed as cell growth at 10^-4 ug/ml after 48 hrs by SRB assay relative to control; format: functional; conditions: K562, 48 h, read-out: Activity
[8] = Binding affinity DPPC multilamellar vesicles assessed as chemical shift at 1:5 compound/lipid ratio at 333 K by nuclear magnetic resonance analysis
[9] = Binding affinity DPPC multilamellar vesicles assessed as main transition temperature at 1:20 compound/lipid ratio after 2 hrs by differential scanning calorimetry method (reference value: 41.98 degC)
[10] = Binding affinity DPPC multilamellar vesicles assessed as chemical shift at 1:5 compound/lipid ratio at 323 K by nuclear magnetic resonance analysis
[11] = Binding affinity DPPC multilamellar vesicles assessed as pre-transition temperature at 1:20 compound/lipid ratio after 2 hrs by differential scanning calorimetry method (reference value: 34.10 degC)
[12] = Binding affinity DPPC multilamellar vesicles assessed as pre-transition temperature at 1:10 compound/lipid ratio after 2 hrs by differential scanning calorimetry method (reference value: 34.10 degC)

Row | SMILES | Activity [1] [%] | IC50 [2] [µg/mL] | growth at 0.0001 µg/mL (MCF7) [%] | growth at 0.0001 µg/mL (HepG2) [%] | T [3] [°C] | T [4] [°C] | Kapp [5] [M⁻¹] | Activity [6] | T [7] [°C] | growth at 0.0001 µg/mL (K562) [%] | Activity [8] | T [9] [°C] | Activity [10] | T [11] [°C] | T [12] [°C]
1 | O=c1c(O)c(-c2ccc(O)c(O)c2)oc2cc(O)cc(O)c12 [QUERCETIN] | 60 | 9.14 (≈ 30.2 µM) | 8.3 | -5.4 | 39.7 | 39.6 | 10710 | Active | 41 | 12.4 | Active | 40.2 | Active | – | –
2 | O=c1c(O)c(-c2ccc(O)c(O)c2)oc2cc(O)ccc12 [FISETIN] | 60 | 9.26 (≈ 32.4 µM) | 47.1 | 62.8 | 39.3 | 38.3 | 10438 | Active | 39.2 | 33.7 | Active | 40.8 | Active | 30.1 | 26.2
3 | O=c1c(O)c(-c2ccccc2)oc2cc(O)cc(O)c12 [GALANGIN] | 60 | 11.4 (≈ 42.2 µM) | 68.2 | 23.7 | 37.9 | 37.6 | 16701 | Active | 36.5 | 74.8 | Active | 38.7 | Active | – | –
